pIC50: −log10 of the molar value. Counter-ions that a name gives are not always drawn.
Target: T1, 5-Lipoxygenase (Homo sapiens, UniProt P09917)
T1 construct: from tissue; host or cells: human heparinized whole blood
T1 sequence (P09917 1-674): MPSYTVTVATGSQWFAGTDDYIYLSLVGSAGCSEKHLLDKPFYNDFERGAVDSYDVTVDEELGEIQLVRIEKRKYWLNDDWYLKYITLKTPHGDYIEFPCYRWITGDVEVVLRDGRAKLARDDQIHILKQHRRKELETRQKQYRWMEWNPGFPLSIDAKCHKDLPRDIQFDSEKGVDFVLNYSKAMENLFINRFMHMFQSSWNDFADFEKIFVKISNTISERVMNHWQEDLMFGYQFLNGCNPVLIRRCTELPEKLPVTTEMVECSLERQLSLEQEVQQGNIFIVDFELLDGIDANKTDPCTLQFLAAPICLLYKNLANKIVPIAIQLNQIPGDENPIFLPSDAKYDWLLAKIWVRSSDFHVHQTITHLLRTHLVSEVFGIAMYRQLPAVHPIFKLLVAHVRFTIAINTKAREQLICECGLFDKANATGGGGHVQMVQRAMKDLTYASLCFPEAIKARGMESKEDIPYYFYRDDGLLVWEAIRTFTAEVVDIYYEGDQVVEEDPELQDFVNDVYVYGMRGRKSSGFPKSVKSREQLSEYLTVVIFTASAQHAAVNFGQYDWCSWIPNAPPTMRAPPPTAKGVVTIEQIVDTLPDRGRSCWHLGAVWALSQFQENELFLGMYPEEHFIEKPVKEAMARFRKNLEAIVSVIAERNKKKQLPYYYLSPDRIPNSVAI
Test: Inhibition of calcium ionophore-induced LTB4 biosynthesis in human whole blood (5-lipoxygenase)
Type: cell-based
Conditions: for pIC50: calcium ionophore A23187 8.3 μM, 15 min preincubation, 37° C., read-out: IC50 against 5-lipoxygenase from stimulated LTB4 formation in human whole blood; for inhibition at 0.1 µM: @ 0.10 μM
Description: Inhibition of leukotriene biosynthesis was evaluated in an assay, involving calcium ionophore-induced LTB4 biosynthesis expressed human whole blood. Human heparinized whole blood was preincubated with test compounds or vehicle for 15 min at 37° C. followed by calcium ionophore A23187 challenge (final concentration of 8.3 μM) and the reaction terminated after 30 min by adding two volumes of methanol containing prostaglandin B2 as an internal recovery standard. The methanol extract was analyzed for LTB4 using a commercially available radioimmunoassay.

[1] = A23187, read-out: Inhibition of stimulated LTB4 formation in human whole blood

SMILES | pIC50 | further results
COC1(c2cc(F)cc(OCc3ccc(CNC(=O)N(C)C)cc3)c2)CCOCC1 [Example 11, 4-{3-[4-((N',N'-dimethylaminocarbonyl)aminomethyl)benzyloxy]-5-fluorophenyl}-4-methoxytetrahydropyran] | 5.74 | –
COC1(c2cccc(Sc3ccc(N(C)C(=O)N(C)C)cc3)c2)CCOCC1 [Example 8, 4-{3-[4-((N',N'-dimethylaminocarbonyl)-N-methylamino)phenylthio]phenyl}-4-methoxytetrahydropyran] | – | inhibition at 0.025 µM (@ 0.025 μM, A23187, read-out: Inhibition of stimulated LTB4 formation in human whole blood): 45%
COC1(c2cccc([S+]([O-])c3ccc(N(C)C(=O)N(C)C)cc3)c2)CCOCC1 (stereo not shown) [Example 9, 4-{3-[4-((N',N'-dimethylaminocarbonyl)-N-methylamino)phenylsulfinyl]phenyl}-4-methoxytetrahydropyran] | – | inhibition at 0.1 µM [1]: 25%
C=CCN(C)C(=O)N(C)c1ccc(Sc2cccc(C3(OC)CCOCC3)c2)cc1 [Example 35, 4-{3-[4-(((N'-allyl-N'-methylamino)carbonyl)-N-methylamino)phenyl-thio]phenyl}-4-methoxytetrahydropyran] | 7.52 | –
CNC(=O)N(C)c1ccc(Sc2cccc(C3(OC)CCOCC3)c2)cc1 [Example 28, 4-{3-[4-((N"-methylaminocarbonyl)-N-methylamino)phenylthio]phenyl}-4-methoxytetrahydropyran] | – | inhibition at 0.78 µM (@ 0.78 μM, A23187, read-out: Inhibition of stimulated LTB4 formation in human whole blood): 100%
COC1(c2cccc(Sc3ccc(N(C)C(=O)N4CCOCC4)cc3)c2)CCOCC1 [Example 29, 4-{3-[4-((4-morpholinocarbonyl)-N-methylamino)phenylthio]phenyl}-4-methoxytetrahydropyran] | – | inhibition at 0.1 µM [1]: 94%
COC1(c2cccc(Sc3ccc(N(C)C(=O)N4CCN(C)CC4)cc3)c2)CCOCC1 [Example 33, 4-{3-[4-(((4-methylpiperazinyl)carbonyl)-N-methylamino)phenylthio]phenyl}-4-methoxytetrahydropyran hydrochloride salt] | 7.10 | –
COC1(c2cc(F)cc(OCc3ccc(N(C)C(=O)N(C)C)cc3)c2)CCOCC1 [Example 1, 4-{3-[4-((N',N'-dimethylaminocarbonyl)-N-methylamino)benzyloxy]-5-fluorophenyl}-4-methoxytetrahydropyran] | 7.77 | –
COC1(c2cc(F)cc(OCc3ccc(CN4CCNC4=O)cc3)c2)CCOCC1 [Example 17, 4-{3-[4-(imidazolidin-2-on-1-ylmethyl)benzyloxy]-5-fluorophenyl}-4-methoxytetrahydropyran] | – | inhibition at 200 µM (@ 200 μM, A23187, read-out: Inhibition of stimulated LTB4 formation in human whole blood): 13%
COC1(c2cccc(Sc3ccc(N(C)C(=O)N4CCN(C)CC4)cc3)c2)CCOCC1 [Example 31, 4-{3-[4-(((4-methylpiperazinyl)carbonyl)-N-methylamino)phenylthio]phenyl}-4-methoxytetrahydropyran] | 7.15 | –

Reference: patent US5432194A, “(4-alkoxypyran-4-yl) substituted arylalkylaryl-, aryalkenylaryl-, and aryalkynylarylurea inhibitors of 5-lipoxygenase” (Abbott Laboratories, priority 1994, dated 1995)
